Cn1nnc2c(C(N)=O)ncn2c1=O
solubility (mole fraction)
Settings | 273.15 K | 278.15 K | 283.15 K | 288.15 K | 293.15 K | 298.15 K | 303.15 K | 308.15 K | 313.15 K | 318.15 K
in ethanol | 6.58e-05 | 7.89e-05 | 9.48e-05 | 0.000115 | 0.000136 | 0.00016 | 0.000188 | 0.000225 | 0.000269 | 0.000313
in ethyl acetate | 8.03e-05 | 9.96e-05 | 0.00012 | 0.000144 | 0.000173 | 0.000206 | 0.000237 | 0.000277 | 0.000319 | 0.000371
in isopropanol | 2.2e-05 | 2.69e-05 | 3.4e-05 | 4.26e-05 | 5.17e-05 | 6.38e-05 | 7.8e-05 | 9.41e-05 | 0.000116 | 0.000143
in methanol | 0.000174 | 0.000217 | 0.00027 | 0.000327 | 0.00039 | 0.000459 | 0.000536 | 0.000621 | 0.00072 | 0.000838
in n-propanol | 4.28e-05 | 5.53e-05 | 6.99e-05 | 8.65e-05 | 0.000107 | 0.00013 | 0.000157 | 0.000188 | 0.000226 | 0.000271
